The text below walks through data of patent publication US20220324865A1 (Bayer Aktiengesellschaft, priority 2018, published 2022).

The target of the assay is T1, human EP3 receptor (Homo sapiens, UniProt P43115).
T1 construct: expressed in transfected cells; host or cells: CHO K1 (Chinese Hamster Ovary), stably co-transfected with Galpha16 and mitochondrial clytin
T1 sequence (P43115 1-390): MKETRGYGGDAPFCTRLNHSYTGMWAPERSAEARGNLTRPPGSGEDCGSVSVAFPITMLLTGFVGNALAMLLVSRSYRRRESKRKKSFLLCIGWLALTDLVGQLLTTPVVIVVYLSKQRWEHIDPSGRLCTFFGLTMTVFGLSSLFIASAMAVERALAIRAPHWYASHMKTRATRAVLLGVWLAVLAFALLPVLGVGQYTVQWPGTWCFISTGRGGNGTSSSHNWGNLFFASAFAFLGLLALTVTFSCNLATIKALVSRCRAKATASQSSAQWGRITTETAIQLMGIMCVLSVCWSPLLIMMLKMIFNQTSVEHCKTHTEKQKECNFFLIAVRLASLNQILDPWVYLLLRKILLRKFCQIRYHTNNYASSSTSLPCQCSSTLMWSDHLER
Nature of the assay: Cellular in vitro assay for determining EP3 receptor activity (human EP3 cell line, sulprostone-stimulated calcium luminescence). It is filed as cell-based. To be noted: CHO cells expressing human EP3 and mitochondrial Clytin; antagonist mode, sulprostone at EC50; read-out: EP3 CHO mtCLY ANTAG IC50. An outline of the steps: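 Antagonist activity was measured as inhibition of the luminescent calcium signal elicited by EC50 sulprostone, following 10 min compound pretreatment. The cell line was recombinant CHO K1 co-expressing human EP3, Gα16 and the photoprotein Clytin, reconstituted with coelenterazine.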
For `CCN1CCC(NC(=O)c2nn3cc(-c4ccc(C)c(F)c4)[nH]c(=O)c3c2C2CC2)(C(F)(F)F)C1` (single isomer, unassigned) [6-406], the IC50 is 23.5 nM.

`CC(C)(O)[C@@H](NC(=O)c1nn2cc(-c3ccc(Cl)c(F)c3)[nH]c(=O)c2c1C(F)(F)F)c1ccc(F)cc1` [6-649]: the IC50 came out at 9.97 nM.

As for `CC(NC(=O)c1cc2c(=O)[nH]c(-c3ccc4ccccc4c3)cn2n1)c1ccc(OCC(F)(F)F)cn1` (stereo not shown) [6-6], the half-maximal inhibitory concentration (IC50) was 2.8 nM.

With `COc1ccc([C@@H](NC(=O)c2nn3cc(-c4ccc(C)c(F)c4)[nH]c(=O)c3c2C2CC2)C(F)(F)CO)cn1` [6-400], the 50% inhibitory concentration (IC50) was 3.65 nM.

On to `COc1ccc(C2(NC(=O)c3cc4c(=O)[nH]c(-c5ccc(C)c(C)c5)cn4n3)CN(C(=O)OC(C)(C)C)C2)cc1` [Example 1-64, tert.-Butyl 3-({[6-(3,4-dimethylphenyl)-4-oxo-4,5-dihydropyrazolo[1,5-a]pyrazin-2-yl]carbonyl}-amino)-3-(4-methoxyphenyl)azetidine-1-carboxylate], for which the concentration for half-maximal inhibition (IC50) is 4.55 nM.

With `CC(NC(=O)c1cc2c(=O)[nH]c(-c3ccc4ccccc4c3)cn2n1)c1ccc(Cl)c(Cl)c1` (stereo not shown) [Example 2-51, N-[1-(3,4-Dichlorphenyl)ethyl]-6-(2-naphthyl)-4-oxo-4,5-dihydropyrazolo[1,5-a]pyrazine-2-carboxamide], the IC50 was found to be 2.05 nM.

Consider `CC(C)(O)[C@@H](NC(=O)c1nn2cc(-c3ccc(C(F)(F)F)c(F)c3F)[nH]c(=O)c2c1C1CC1)c1ccc(F)cc1` [6-602], for which the half-inhibitory concentration (IC50) is 5.65 nM.

Turning to `COc1ccc(C2(NC(=O)c3cc4c(=O)[nH]c(-c5ccc6ccccc6c5)cn4n3)CN(C(=O)OC(C)(C)C)C2)cc1` [Example 1-57, tert.-Butyl 3-(4-methoxyphenyl)-3-({[6-(naphthalen-2-yl)-4-oxo-4,5-dihydropyrazolo[1,5-a]pyrazin-2-yl]carbonyl}amino)azetidine-1-carboxylate], the 50% inhibitory concentration (IC50) came to 4.9 nM.

Regarding `Cc1c(C(=O)NC2Cc3ccccc3C2)nn2c(C)c(-c3ccc4ccccc4c3)[nH]c(=O)c12` [Example 3-13, N-(2,3-Dihydro-1H-inden-2-yl)-3,7-dimethyl-6-(naphthalen-2-yl)-4-oxo-4,5-dihydropyrazolo[1,5-a]pyrazine-2-carboxamide], the IC50 was 7.15 nM.

`COC[C@H](NC(=O)c1cc2c(=O)[nH]c(-c3ccc4c(c3)OCCO4)cn2n1)c1ccccc1` [6-46]: the IC50 was 2.43 nM.

In the case of `Cc1nc(-c2cn3nc(C(=O)N[C@@H](c4ccc(F)cc4)C(F)(F)CO)c(C4CC4)c3c(=O)[nH]2)ccc1Cl` [6-591], the IC50 amounted to 1.3 nM.

With `Cc1cc(-c2cn3nc(C(=O)N[C@@H](C)C4CC4)c(C(F)(F)F)c3c(=O)[nH]2)ccc1Cl` [6-214], the 50% inhibitory concentration (IC50) turned out to be 1.35 nM.

For the molecule `CCc1ccc(C(C)NC(=O)c2nn3cc(-c4cnc5cccc(C)c5c4)[nH]c(=O)c3c2C(C)C)cc1` (stereo not shown) [Example 4-9, N-[1-(4-Ethylphenyl)ethyl]-3-isopropyl-6-(5-methyl-3-quinolyl)-4-oxo-5H-pyrazolo[1,5-a]pyrazine-2-carboxamide], the half-maximal inhibitory concentration (IC50) was 3.7 nM.

Consider `Cc1ccc(-c2cn3nc(C(=O)NC(C)(C)C4CC4)c(C(F)(F)F)c3c(=O)[nH]2)cc1Cl` [6-191], for which the half-inhibitory concentration (IC50) worked out at 0.97 nM.

For the molecule `Cc1ccc(-c2cn3nc(C(=O)N[C@@H](CO)C(F)(F)F)c(C4CC4)c3c(=O)[nH]2)cc1F` [6-393], the half-maximal inhibitory concentration (IC50) is 0.85 nM.

With `Cc1ccc(-c2cn3nc(C(=O)NC(C)CN4CCOCC4)c(C4CC4)c3c(=O)[nH]2)cc1C` (single isomer, unassigned) [6-452], the 50% inhibitory concentration (IC50) amounted to 6.2 nM.

In the case of `Cc1cccc2ncc(-c3cn4nc(C(=O)Nc5ccnn5C)c(C(C)C)c4c(=O)[nH]3)cc12` [Example 4-19, N-(1-Methyl-1H-pyrazol-5-yl)-6-(5-methylquinolin-3-yl)-4-oxo-3-(propan-2-yl)-4,5-dihydropyrazolo[1,5-a]pyrazine-2-carboxamide], the concentration for half-maximal inhibition (IC50) stood at 1.75 nM.

On to `Cc1c(C(=O)NC(C)c2ccc(S(N)(=O)=O)cc2)nn2c(C)c(-c3ccc4ccccc4c3)[nH]c(=O)c12` (stereo not shown) [Example 3-18, 3,7-Dimethyl-6-(2-naphthyl)-4-oxo-N-[1-(4-sulfamoylphenyl)ethyl]-5H-pyrazolo[1,5-a]pyrazine-2-carboxamide], for which the IC50 turned out to be 3.75 nM.

Regarding `CC[C@@H](C)NC(=O)c1nn2cc(-c3ccc(C)c(Cl)c3)[nH]c(=O)c2c1C(F)(F)F` [Example 1-152, N-[(2R)-Butan-2-yl]-6-(3-chloro-4-methylphenyl)-4-oxo-3-(trifluoromethyl)-4,5-dihydropyrazolo-[1,5-a]pyrazine-2-carboxamide], the half-inhibitory concentration (IC50) was 2.1 nM.

Turning to `C[C@H](NC(=O)c1nn2cc(-c3cc(F)c(Cl)c(F)c3)[nH]c(=O)c2c1C1CC1)C1CC1` [6-472], the IC50 came out at 1.16 nM.

Regarding `O=C(N[C@@H](c1ccc(F)cc1)C(F)(F)CO)c1nn2cc(-c3ccc(Cl)c(Cl)c3)[nH]c(=O)c2c1C1CC1` [6-421], the IC50 was found to be 1.49 nM.

In the case of `COc1ccc(C(CCO)NC(=O)c2cc3c(=O)[nH]c(-c4ccc(C(F)(F)F)c(C)c4)cn3n2)cc1` (stereo not shown) [6-31], the half-maximal inhibitory concentration (IC50) turned out to be 8.03 nM.

For the molecule `O=C(NCc1ccc(F)c(F)c1)c1cc2c(=O)[nH]c(-c3ccc4ccccc4c3)cn2n1` [Example 2-33, N-(3,4-Difluorbenzyl)-6-(2-naphthyl)-4-oxo-4,5-dihydropyrazolo[1,5-a]pyrazine-2-carboxamide], the IC50 stood at 1.5 nM.

In the case of `C[C@@H](NC(=O)c1cc2c(=O)[nH]c(-c3ccc4ccccc4c3)cn2n1)c1ccc(F)cc1` [6-78], the 50% inhibitory concentration (IC50) was 2.97 nM.

Turning to `CC[C@@H](C)NC(=O)c1nn2cc(-c3ccc(Cl)c(C)c3)[nH]c(=O)c2c1C(F)(F)C(F)(F)F` [6-479], the concentration for half-maximal inhibition (IC50) was 2.3 nM.

`Cc1ccc(-c2cn3nc(C(=O)N[C@@H](C)CO)c(C4CC4)c3c(=O)[nH]2)cc1C` [Example 1-155, 3-Cyclopropyl-6-(3,4-dimethylphenyl)-N-[(2S)-1-hydroxpropan-2-yl]-4-oxo-4,5-dihydropyrazolo-[1,5-a]pyrazine-2-carboxamide]: the IC50 was 1.5 nM.

Consider `O=C(N[C@@H]1c2ccccc2C[C@@H]1O)c1cc2c(=O)[nH]c(-c3ccc4ccccc4c3)cn2n1` [6-74], for which the half-inhibitory concentration (IC50) stood at 5.77 nM.

With `CN1CC(NC(=O)c2cc3c(=O)[nH]c(-c4ccc5c(c4)CCC5)cn3n2)(c2ccc(F)cc2)C1` [Example 1-96, 6-(2,3-Dihydro-1H-inden-5-yl)-N-[3-(4-fluorophenyl)-1-methylazetidin-3-yl]-4-oxo-4,5-dihydropyrazolo[1,5-a]pyrazine-2-carboxamide], the concentration for half-maximal inhibition (IC50) worked out at 2.65 nM.

On to `CC(C)C(CNC(=O)c1cc2c(=O)[nH]c(-c3ccc4ccccc4c3)cn2n1)n1cccn1` (stereo not shown) [Example 2-17, N-[3-Methyl-2-(1H-pyrazol-1-yl)butyl]-6-(2-naphthyl)-4-oxo-4,5-dihydropyrazolo[1,5-a]pyrazine-2-carboxamide], for which the IC50 amounted to 6.5 nM.

For the molecule `O=C(NCCc1ccccc1)c1cc2c(=O)[nH]c(-c3ccc4ccccc4c3)cn2n1` [6-14], the IC50 was 8.25 nM.

With `N#Cc1c(C(=O)NC2(c3ccc(F)cc3)CC2)nn2cc(-c3ccc4ccccc4c3)[nH]c(=O)c12` [6-70], the concentration for half-maximal inhibition (IC50) amounted to 4.75 nM.

Turning to `CN1CC(NC(=O)c2nn3cc(-c4cc(F)c(Cl)c(F)c4)[nH]c(=O)c3c2C2CC2)(c2ccc(F)cc2)C1` [6-471], the IC50 turned out to be 1.8 nM.

For `COc1cc(-c2cn3nc(C(=O)N[C@@H](C)C4CC4)c(C4CC4)c3c(=O)[nH]2)ccc1Cl` [6-481], the IC50 turned out to be 0.57 nM.

Take `Cc1ccc(C(C)NC(=O)c2cc3c(=O)[nH]c(-c4ccc5ccccc5c4)cn3n2)cc1` (stereo not shown) [Example 2-44, N-[1-(4-Methylphenyl)ethyl]-6-(2-naphthyl)-4-oxo-4,5-dihydropyrazolo[1,5-a]pyrazine-2-carboxamide]: the IC50 stood at 1.3 nM.

In the case of `CC(C)(O)[C@@H](NC(=O)c1nn2cc(-c3ccc(C(F)(F)F)c(F)c3)[nH]c(=O)c2c1C1CC1)c1ccc(F)cc1` [6-588], the IC50 came out at 5.6 nM.

As for `CCN1CCC(NC(=O)c2nn3cc(-c4ccc(Cl)c(C)c4)[nH]c(=O)c3c2C2CC2)(C(F)(F)F)C1` (single isomer, unassigned) [6-294], the IC50 was 9.95 nM.

With `CC(C)(C)OC(=O)N1CC(C(NC(=O)c2cc3c(=O)[nH]c(-c4ccc5ccccc5c4)cn3n2)c2ccc(F)cc2)C1` (racemic) [Example 1-157, tert-Butyl 3-[(4-fluorophenyl)-[[6-(2-naphthyl)-4-oxo-5H-pyrazolo[1,5-a]pyrazine-2-carbonyl]amino]-methyl]azetidine-1-carboxylate (Racemate)], the IC50 was found to be 2.2 nM.

Take `COc1ccc(C(C)NC(=O)c2cc3c(=O)[nH]c(-c4ccc5ccccc5c4)cn3n2)cc1OC` (stereo not shown) [Example 2-55, N-[1-(3,4-Dimethoxyphenyl)ethyl]-6-(2-naphthyl)-4-oxo-4,5-dihydropyrazolo[1,5-a]pyrazine-2-carboxamide]: the IC50 was found to be 1.15 nM.

In the case of `CCn1cc(CNC(=O)c2nn3cc(-c4ccc(C)c(C)c4)[nH]c(=O)c3c2Cl)c(C)n1` [6-112], the IC50 is 1.14 nM.

As for `Cc1ccc(-c2[nH]c(=O)c3c(C(F)(F)F)c(C(=O)N[C@H](CCO)c4ccc(F)cc4)nn3c2C)cc1C` [Example 1-122, 6-(3,4-Dimethylphenyl)-N-[(1R)-1-(4-fluorophenyl)-3-hydroxpropyl]-7-methyl-4-oxo-3-(trifluoromethyl)-4,5-dihydropyrazolo[1,5-a]pyrazine-2-carboxamide], the 50% inhibitory concentration (IC50) was 4.13 nM.
